The series in a line: in vitro. The note with it: human, hela cells, % viability.

Each structure is given as a SMILES string.

Usually viability stands for a read-out of living cells in per cent, often relative to untreated cells. With `Cc1ccc(NC(=O)c2nccc3ccccc23)c(C)n1` [CBK200294], the viability at 28.5 h, 10 µM was 93.2%.
Regarding `Cc1ccc(NC(=O)c2cscn2)c(C)n1` [CBK200297], the viability at 28.5 h, 10 µM came to 102%.
With `Cc1ccc(NC(=O)Cc2cn(C)c3ccccc23)c(C)n1` [CBK200298], the viability at 28.5 h, 10 µM came to 61.9%.
As to `Cc1noc(C)c1NC(=O)c1ccnc2ccccc12` [CBK200302], the viability at 28.5 h, 10 µM worked out at 96.3%.
Then `Cc1noc(C)c1NC(=O)c1cc2ccccc2[nH]1` [CBK200303], with 95.6%; and `Cc1noc(C)c1NC(=O)c1ccc2ccccc2n1` [CBK200309], with 101%.
As for `Cc1noc(C)c1NC(=O)c1nc2ccccc2[nH]1` [CBK200315], the viability at 28.5 h, 10 µM is 81.5%.
Then `O=C(c1ccncc1)N1Cc2ccccc2C1` [CBK200316], with 103%.
Then `Cc1ccc(C(=O)N2Cc3ccccc3C2)cn1` [CBK200318], with 94.9%.
`O=C(c1ccc[nH]1)N1Cc2ccccc2C1` [CBK200319]: the viability at 28.5 h, 10 µM worked out at 89.4%.
Take `O=C(Cc1cccnc1)N1Cc2ccccc2C1` [CBK200320]: the viability at 28.5 h, 10 µM amounted to 90.5%.
The same measure for `O=C(Cc1c[nH]c2ccccc12)N1Cc2ccccc2C1` [CBK200321]: 103%.
As for `O=C(c1ccc2nc[nH]c2c1)N1Cc2ccccc2C1` [CBK200322], the viability at 28.5 h, 10 µM was 103%.
The same measure for `O=C(c1cnccc1C(F)(F)F)N1Cc2ccccc2C1` [CBK200323]: 105%; for `COc1ncccc1C(=O)N1Cc2ccccc2C1` [CBK200324]: 101%; for `O=C(c1csnn1)N1Cc2ccccc2C1` [CBK200325]: 111%.
The same measure for `Cc1nc(C)c(C(=O)N2Cc3ccccc3C2)s1` [CBK200326]: 95.9%; for `O=C(c1ccno1)N1Cc2ccccc2C1` [CBK200327]: 97%.
The same measure for `Cc1cc(C(=O)N2Cc3ccccc3C2)n[nH]1` [CBK200328]: 100%.
Take `Cn1cncc1C(=O)N1Cc2ccccc2C1` [CBK200329]: the viability at 28.5 h, 10 µM is 106%.
With `O=C(c1ccc2[nH]nnc2c1)N1CCc2ccccc2C1` [CBK200332], the viability at 28.5 h, 10 µM stood at 103%.
Take `Cc1noc(C)c1C(=O)N1CCc2ccccc2C1` [CBK200333]: the viability at 28.5 h, 10 µM was 103%.
Turning to `O=C(Cc1ccccn1)N1CCc2ccccc2C1` [CBK200334], the viability at 28.5 h, 10 µM was 104%.
For `O=C(Cn1cnnn1)N1CCc2ccccc2C1` [CBK200335], the viability at 28.5 h, 10 µM was 101%.
For the molecule `COc1ncccc1C(=O)N1CCc2ccccc2C1` [CBK200336], the viability at 28.5 h, 10 µM came to 96.9%.
The same measure for `Cn1c(C(=O)N2CCc3ccccc3C2)cc2ccccc21` [CBK200337]: 96.7%; for `CCOc1ccsc1C(=O)N1CCc2ccccc2C1` [CBK200339]: 95.1%.
The same measure for `Cc1cc(C(=O)N2CCCc3ccccc32)n[nH]1` [CBK200346]: 92%; for `O=C(c1cscn1)N1CCCc2ccccc21` [CBK200348]: 102%.
Then `Cn1cc(CC(=O)N2CCCc3ccccc32)c2ccccc21` [CBK200349], with 64.8%.
With `O=C(Cc1ccncc1)NC1Cc2ccccc2C1` [CBK200351], the viability at 28.5 h, 10 µM came to 94.1%.
Take `O=C(NC1Cc2ccccc2C1)c1nccc2ccccc12` [CBK200356]: the viability at 28.5 h, 10 µM turned out to be 97%.
The same measure for `O=C(NC1Cc2ccccc2C1)c1ccno1` [CBK200358]: 99.4%.
Regarding `CN(C)c1ccc(CC(=O)NC2Cc3ccccc3C2)cc1` [CBK200360], the viability at 28.5 h, 10 µM was 105%.
The same measure for `Cn1cncc1C(=O)NC1Cc2ccccc2C1` [CBK200362]: 107%; for `O=C(c1ccc2[nH]nnc2c1)N1CCc2ccccc21` [CBK200365]: 102%; for `O=C(Cc1c[nH]c2ccccc12)N1CCc2ccccc21` [CBK200366]: 107%.
The same measure for `O=C(Cn1cnnn1)N1CCc2ccccc21` [CBK200367]: 97.4%.
Then `C[C@@H]1CN(C(=O)c2ccc3[nH]nnc3c2)C[C@H](C)O1` [CBK200369], with 104%; and `CCN1CCN(C(=O)c2c(C)noc2C)CC1` [CBK200374], with 93.6%.
Consider `CCN1CCN(C(=O)Cc2cccnc2)CC1` [CBK200375], for which the viability at 28.5 h, 10 µM was 92.3%.
Then `Cc1ccc(NC(=O)COc2cccnc2)c(C)n1` [CBK200379], with 102%; and `Cc1noc(C)c1NC(=O)c1cncnc1` [CBK200382], with 112%.
As to `O=C(CN1CCOCC1)N1CCC(F)CC1` [CBK200383], the viability at 28.5 h, 10 µM stood at 83.5%.
The same measure for `O=C(c1cncnc1)N1CCC(F)CC1` [CBK200384]: 92.1%.
As for `Cc1ccc(NC(=O)c2cc(C)[nH]n2)c(C)n1` [CBK200387], the viability at 28.5 h, 10 µM turned out to be 83.8%.
Then `Cc1noc(C)c1NC(=O)c1cnccn1` [CBK200390], with 89.9%.
Regarding `Cc1noc(C)c1NC(=O)Cc1cccnc1` [CBK200391], the viability at 28.5 h, 10 µM turned out to be 96.6%.
As for `Cc1ccncc1C(=O)Nc1c(C)noc1C` [CBK200393], the viability at 28.5 h, 10 µM was found to be 80.7%.
The same measure for `Cc1noc(C)c1NC(=O)c1ccno1` [CBK200394]: 87%; for `Cc1noc(C)c1NC(=O)c1cncn1C` [CBK200396]: 115%; for `Cc1ccncc1C(=O)N1CCc2ccccc21` [CBK200400]: 109%.
Consider `COc1ncccc1C(=O)N1CCc2ccccc21` [CBK200402], for which the viability at 28.5 h, 10 µM worked out at 91.5%.
The same measure for `O=C(c1nccc2ccccc12)N1CCc2ccccc21` [CBK200405]: 93.5%; for `Cn1c(C(=O)N2CCc3ccccc32)cc2ccccc21` [CBK200406]: 110%; for `O=C(c1nc2ccccc2[nH]1)N1CCc2ccccc21` [CBK200411]: 87.8%.
Turning to `Cn1cncc1C(=O)N1CCc2ccccc21` [CBK200412], the viability at 28.5 h, 10 µM turned out to be 86.7%.
With `O=C(OCCc1c[nH]c2ccccc12)N1CCOCC1` [CBK200415], the viability at 28.5 h, 10 µM amounted to 106%.
Turning to `C[C@@H]1CN(C(=O)OCCc2ccsc2)C[C@H](C)O1` [CBK200417], the viability at 28.5 h, 10 µM turned out to be 89.3%.
In the case of `CCSc1ccccc1-c1nc2c(=O)n(C)c(-c3ccc(CN4CCCC4)cc3)cc2o1` [CBK200426T], the viability at 28.5 h, 10 µM worked out at 77.9%.
The same measure for `Cn1c(-c2ccc(CN3CCCC3)cc2)cc2oc(-c3ccccc3SCCO)nc2c1=O` [CBK200427T]: 94.7%; for `O=c1[nH]c(=O)n([C@H]2C[C@H](O)[C@@H](CO)O2)cc1I` [CBK200650]: 96.5%.
The same measure for `COc1ccc(Cn2c(C)nc3ccccc32)cc1` [CBK201156]: 116%.
As to `O=c1[nH]cc([C@H]2C[C@@H](O)[C@@H](CO)O2)c(=O)[nH]1` [CBK201158], the viability at 28.5 h, 10 µM was determined as 95.4%.
For `O=c1ccn([C@@H]2O[C@H](CO)[C@H](O)C2O)c(=O)[nH]1` (some centres unmarked) [CBK201159], the viability at 28.5 h, 10 µM is 95.1%.

Source of the values: PMC12040169 (PLOS Biology, 2025).
